# From patent publication US20080176907A1, “NOS Inhibitors For Treatment Of Motor Deficit Disorders” (Northwestern University, priority 2006, published 2008)
# Tests used:
# [1] = effect of maternal administration on blood pressure and heart rate in E22 rabbit dams; type: in vivo, New Zealand white rabbit
# Procedure: Because of the importance of eNOS to the regulation of cardiovascular activity, the effect of maternal administration of 4 and 5 on blood pressure in 22 day-gestation (E22) New Zealand white rabbit dams was determined. There was no effect on heart rate or on systolic or diastolic blood pressure by treatment with 4 or 5.
# [2] = tested on: hypoxia-ischemia of rabbit fetuses; test: uterine ischemia, global hypoxia-ischemia of rabbit fetuses, neurobehavioral examination of P1 kits; conditions: for number of normal postnatal P1 kits: compared to saline-treated dams; for protection against HI-fetal brain injury: comparison with 7-NI, p<0.05 Fisher's Exact Test; for permeability to the fetal brain: maternal administration
# [3] = molecular target: nNOS (Rattus norvegicus, UniProt P29476); conditions: read-out: Ki nNOS
# [4] = molecular target: iNOS (Mus musculus, UniProt P29477); test: biochemical
# [5] = Paudler and Blewitt, 1966; cited from earlier work
# [6] = tested on: whole body ischemia; conditions: in vivo; cited from earlier work
# [7] = tested on: total constitutive NOS activity (both nNOS and eNOS) in fetal brain homogenates; test: NOS activity and NOx levels in fetal brain after maternal administration; type: in vivo; conditions: E22 rabbit dams
# Source text: The NOS activity assay in fetal brain homogenates assessed total constitutive NOS activity (i.e., both nNOS and eNOS). […] Therefore changes in NOS activity should correspond to changes in nNOS activity. […] The corresponding decrease in the NO concentration also indicated strong NOS inhibition had occurred.
# Chain of iNOS (P29477 whole entry): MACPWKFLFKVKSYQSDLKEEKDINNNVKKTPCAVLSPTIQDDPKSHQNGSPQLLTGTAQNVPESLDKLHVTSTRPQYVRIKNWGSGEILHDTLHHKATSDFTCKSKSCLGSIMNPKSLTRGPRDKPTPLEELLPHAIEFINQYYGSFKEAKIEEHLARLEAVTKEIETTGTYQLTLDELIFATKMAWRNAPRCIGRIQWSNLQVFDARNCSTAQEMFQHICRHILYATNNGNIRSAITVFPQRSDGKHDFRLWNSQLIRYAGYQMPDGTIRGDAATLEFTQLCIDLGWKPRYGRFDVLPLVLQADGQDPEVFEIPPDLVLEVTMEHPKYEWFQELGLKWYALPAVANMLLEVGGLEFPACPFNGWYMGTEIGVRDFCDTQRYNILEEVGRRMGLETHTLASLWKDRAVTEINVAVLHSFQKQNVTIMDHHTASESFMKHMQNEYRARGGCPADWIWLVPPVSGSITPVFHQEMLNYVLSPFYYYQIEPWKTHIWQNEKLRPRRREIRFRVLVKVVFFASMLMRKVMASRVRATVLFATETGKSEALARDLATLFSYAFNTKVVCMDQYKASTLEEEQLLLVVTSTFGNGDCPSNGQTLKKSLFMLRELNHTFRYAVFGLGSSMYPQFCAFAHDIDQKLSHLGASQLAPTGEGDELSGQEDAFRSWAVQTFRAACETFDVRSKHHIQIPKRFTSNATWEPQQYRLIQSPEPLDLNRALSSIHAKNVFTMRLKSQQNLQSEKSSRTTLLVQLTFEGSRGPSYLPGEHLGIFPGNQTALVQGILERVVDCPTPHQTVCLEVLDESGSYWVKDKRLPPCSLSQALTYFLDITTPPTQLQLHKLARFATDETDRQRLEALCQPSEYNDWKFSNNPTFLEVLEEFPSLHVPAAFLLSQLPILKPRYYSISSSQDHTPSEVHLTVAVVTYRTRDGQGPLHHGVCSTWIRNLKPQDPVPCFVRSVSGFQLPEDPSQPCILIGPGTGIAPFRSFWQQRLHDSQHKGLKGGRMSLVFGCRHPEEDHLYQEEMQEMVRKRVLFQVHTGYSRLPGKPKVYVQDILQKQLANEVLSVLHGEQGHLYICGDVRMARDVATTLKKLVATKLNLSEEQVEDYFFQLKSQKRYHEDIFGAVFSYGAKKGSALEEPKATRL
structure (smiles),measurement,setting,value
Cc1cc(N)nc(C[C@H]2CNC[C@H]2NCCNCc2ccc(Cl)cc2)c1 (racemic) [(±)-4],effect on heart rate,[1],no effect
same,effect on systolic or diastolic blood pressure,[1],no effect
same,incidence of fetal death (dead/total fetuses),[2]; 0/49 is stated for either 4 or 5,0/49
same,Normal (number of kits),"[2]; Dose 75 ki × 2, Age 22",9
same,Severe (number of kits),"[2]; Dose 75 ki × 2, Age 22",2
same,Severe (number of kits),"[2]; Dose 75 ki × 2, Age 25",2
same,Normal (number of kits),"[2]; Dose 75 ki × 2, Age 29",10
same,number of normal postnatal P1 kits,[2],substantially larger number
same,protection against HI-fetal brain injury,[2],superior to 7-NI
same,fetal/neonatal deaths,[2]; inhibitor 30 min prior to and immediately after uterine ischemia,no deaths
same,permeability to the fetal brain,[2],permeable
Cc1cc(N)nc(C[C@H]2CNC[C@H]2NCCNCCc2ccccc2)c1 (relative stereo) [JI-6],Normal (number of kits),"[2]; Dose 200 ki × 2, Age 22",9
N=C(NCCC[C@H](N)C(=O)N[C@H]1CN[C@H](C(N)=O)C1)N[N+](=O)[O-] [compound 3],Ki,[3],0.1 µM
same,Ki,[4],29 µM
"O=[N+]([O-])c1cccc2cn[nH]c12 [7-NI, 7-nitroindazole, reference compound]",incidence of fetal death (dead/total fetuses),"[2]; rabbit, in vivo",10/38
same,incidence of fetal death (stillborn),"[2]; rabbit, in vivo",26%
"Cc1cc(C)nc(N)c1 [2-amino-4,6-dimethylpyridine]",pKa,[5],7.12
FC(F)(F)c1ccccc1-n1ccnc1 [TRIM],outcome following whole body ischemia,[6],worse outcome
Cc1cc(N)nc(C[C@H]2CNC[C@H]2NCCNCCc2cccc(F)c2)c1 (racemic) [(±)-5],effect on heart rate,[1],no effect
same,effect on systolic or diastolic blood pressure,[1],no effect
same,NO concentration (NOx) in fetal brain,[7]; after maternal treatment,decrease
same,NOS activity in fetal brain,[7]; shortly after acute maternal treatment,NOS inhibition was observed
same,effect when administered post-ischemia,[2]; administered post-ischemia,no effect
same,number of normal postnatal P1 kits,[2],substantially larger number
same,protection against HI-fetal brain injury,[2],superior to 7-NI
same,permeability to the fetal brain,[2],permeable
same,fetal/neonatal deaths,"[2]; rabbit, in vivo",no deaths
same,incidence of fetal death (dead/total fetuses),"[2]; rabbit, in vivo",0/49
"N=C(NCCC[C@H](N)C(=O)O)N[N+](=O)[O-] [εNNA, L-N^ω-nitroarginine]",Ki,[4],4.55 µM
